{"source": "patent US11980613B2", "about": "“Methods for reversing HIV latency using BAF complex modulating compounds” (priority 2018, dated 2024)", "key": {"[1]": {"test_system": "Bmi1-luciferase reporter cell line", "experiment": "Bmi1-luciferase reporter assay (screen for inhibitors of BAF-mediated transcriptional repression)", "assay_type": "cell-based, mouse", "conditions": "for activity in the Bmi1 luciferase reporter assays: grading in words", "protocol": "Low passage mESCs from 129 mice (20 million, p10) were electroporated with 40 μg of a linearized construct consisting of 2 kb homology upstream of the Bmi1 locus, firefly luciferase at exon 1 of Bmi1 followed by loxP neo and a 6 kb 3′ homology arm with thymidine kinase outside the homology arms. The cells were plated on 10 gelatin treated plates (60 mm) of irradiated neo resistant MEFs and selected with G418 and ganciclovir for 5 days. 384 colonies were selected, trypsinized and replated in gelatin treated 24-well plates for expansion. The cells were split and DNA was isolated for digestions with EcoRI or BamHI. We confirmed the successful homologous recombination in 7 out 384 colonies using Southern blot analysis at both the 5′ (EcoRI) and 3′ (BamHI) end (see Table S2 of Marian et al., “Small Molecule Targeting of Specific BAF (mSWI/SNF) Complexes for HIV Latency Reversal,” Cell Chem. Biol. (Dec. 20, 2018) 25: 1443-1445). We deleted the neomycin cassette using transfected Cre recombinase and confirmed the excision at all clones using a second round of Southern blot analysis at the 3′ end (BamHI).\n(§1) 3. Compound Treatment: 10,000 cells in 30 μL ESC media were plated in white 384 well CellBind plates. The cells were cultured in a 37° C., 5% CO2 incubator for 24 h and 100 nL/well of 0.75 mM of positive control (Pubchem SID: 85814977) or 100 nL/well of 3.75 mM compound library (primary screen) was added via pin transfer into plates. There was no effect on assay readout at DMSO concentrations up to 0.5%. The cells were cultured in a 37° C., 5% CO2 incubator for 24 h for luciferase reporter assay and 18 h for qRT-PCR assay. 4. Luciferase assay: (PubChem AID 602393 primary, PubChem AID 651717 confirmatory.) The assay plates were removed from the incubator and equilibrates for 10 minutes to room temperature. Promega SteadyGlo® solution (10 μL/well) was added to each well of the assay plates. The assay plates were mixed at 1000 rpm for 15 seconds and then incubated for 10 minutes at room temperature. The luciferase levels were read on a Perkin Elmer Envision in Ultra Sensitive Luminescence mode. Signals remained stable up to 2 hours. 5. EqRT-PCR secondary screen (PubChem AID 743180, 743177, 743176) The qRTPCR screen was performed as published^54. In brief, 5,000 ES cells were plated on gelatin-coated 384-well tissue culture plates and cultured in a 37C, 5% CO2 incubator. 24 h later, hit compounds in 100 nL DMSO were treated at eight different doses. 18 h after compound treatment cells were washed two times with 100 μL PBS and all excess PBS was removed by centrifuging the plates upside down at 1000 rpm. The Ambion® Cells-to-Ct kit was used to generate cDNA. In brief, the cells were lysed in the plate in 10 μL lysis buffer containing DNase for 10 minutes and quenched with 1 μL lysis stop buffer. The lysate (2 μL) was added to 5 μL RT reaction buffer (2×), 2.5 μL nuclease-free water and 0.5 μL Reverse transcriptase (20×) and incubated at 37° C. for 60 minutes and 95° C. for 1 minute to generate 10 μL of cDNA. cDNA (1 μL) was used in each 5 μL qPCR reaction with Roche master mix and TaqMan probes (Applied Biosystems) for Bmi1-FAM (Mm00776122_gH), Ring1a-FAM (Mm01278940_m1/4331182), or Fgf4-FAM (Mm00438916_g1/4351372) alongside actin-VIC (4352341E) for a loading control. The qPCR was run accordingly: 95° C. for 10 minutes Then 55 cycles of: 95° C. for 10 seconds followed by 60° C. for 30 seconds. The fold increase in transcription was calculated using the ΔΔCT method^84. 6. Viability Assays (PubChem AID: 743188, 743189, 743190, 1053139, 1053140, 1053141)"}, "[2]": {"test_system": "latent HIV-1 infected T cells", "experiment": "HIV latency reversal activity of the thiophene hit", "assay_type": "cell-based"}, "[3]": {"test_system": "HEK293T cells", "experiment": "Viability assay HEK293T", "assay_type": "cell-based", "conditions": "72 h", "protocol": "(§2) Cell culture: HepG2, A549 and HEK293 cells were propagated to 95% confluence in DMEM containing 10% FBS 1% Pen/Strep, 1% L-Glutamine. Cells were plated at 2000 per well in 40 μL media in white tissue culture treated 384-well plates and incubated at 5% CO2; 95% humidity, 37° C. for 24 hours. Compound (100 nL) was added to wells using a pin tool (CyBi Well) alongside 100 nL cytotoxic compounds, mitoxantrone (final concentration of 10 μM) as a positive control. The cells were incubated for 72 hours at 37° C., 95% humidity 5% CO2. Plates were removed from the incubator, equilibrated for 15 minutes to room temperature; and 20 μL 50% Promega CellTiterGlo (diluted 1:1 with PBS, pH 7.4) was added. The plates were read on Perkin-Elmer EnVision with standard luminescence settings for 0.1 sec per well."}, "[4]": {"test_system": "A549 cells", "experiment": "Viability assay A549", "assay_type": "cell-based", "conditions": "72 h", "protocol": "as §2"}, "[5]": {"test_system": "HepG2 cells", "experiment": "Viability assay HepG2", "assay_type": "cell-based", "conditions": "72 h", "protocol": "as §2"}, "[6]": {"test_system": "wild type ESCs", "experiment": "Viability in wild type ESCs (CellTiter-Glo)", "assay_type": "cell-based, mouse", "conditions": "up to 30 μM; 72 h", "protocol": "FIG. 2: 12-membered macrolactams are inhibitors of BAF-mediated transcription. A. The EC50 was measured for the best screen hit BRD-K98645985 after 24 h compound treatment with the Bmi1-luciferase reporter cell line. Each concentration was dosed in triplicate. B. The fold change of the transcription of three BAF target genes was calculated using qRT-PCR after 18 h BRD-K98645985 treatment (30 μM) or Brg1 knockdown compared to untreated cells. C. Viability measurements in wild type ESCs were performed after 72 h of compound or DMSO treatment using CellTiter-Glo®. D. The structure activity relationship of the eight stereoisomers of BRD-K98645985 based on initial luciferase induction from the primary screen. E. The structure activity relationship of the 3618 macrolactam library members based on initial luciferase induction from the primary screen.\nCell culture: HepG2, A549 and HEK293 cells were propagated to 95% confluence in DMEM containing 10% FBS 1% Pen/Strep, 1% L-Glutamine. Cells were plated at 2000 per well in 40 μL media in white tissue culture treated 384-well plates and incubated at 5% CO2; 95% humidity, 37° C. for 24 hours. […] The plates were read on Perkin-Elmer EnVision with standard luminescence settings for 0.1 sec per well."}, "[7]": {"test_system": "BAF target genes (Bmi1, Ring1, Fgf4)", "experiment": "qRT-PCR of BAF target genes in ESCs", "assay_type": "cell-based, mouse", "conditions": "30 μM of compound, 18 h", "protocol": "as §1, with “The lysate (2 μL) was added to 5 μL RT reaction buffer (2×), 2.5 μL nuclease-free water and 0.5 μL Reverse transcriptase (20×) and incubated at 37° C. for 60 minutes and 95° C. for 1 minute to generate 10 μL of cDNA. cDNA (1 μL) was used in each 5 μL qPCR reaction with Roche master mix and TaqMan probes (Applied Biosystems) for Bmi1-FAM (Mm00776122_gH), Ring1a-FAM (Mm01278940_m1/4331182), or Fgf4-FAM (Mm00438916_g1/4351372) alongside actin-VIC (4352341E) for a loading control. The qPCR was run accordingly: 95° C. for 10 minutes Then 55 cycles of: 95° C. for 10 seconds followed by 60° C. for 30 seconds.” left out, “6. Viability Assays (PubChem AID: 743188, 743189, 743190, 1053139, 1053140, 1053141)” left out"}, "[8]": {"test_system": "latent provirus in J-Lat T-cell line", "experiment": "Cell line models of HIV-1 latency (J-Lat, GFP)", "assay_type": "cell-based", "conditions": "higher concentrations than in primary cells; 48 h", "protocol": "[drawing 27] i. BRD-K25923209: To Macrocycle 2141-039b (0.804 g, 1.550 mmol) dissolved in MeOH (Volume: 15.50 ml) was added tin(II) chloride dihydrate (3.50 g, 15.50 mmol). […] Upon completion, the reaction mixture was concentrated and the resulting residue was dissolved in EtOAc and washed with 2 M aq. KOH (2×). The combined aqueous layers were washed with EtOAc (4×). The resulting organic layers were washed with brine, saturated aqueous NaHCO3, water, and brine, dried over MgSO4, filtered, and concentrated. […] BRD-K80443127: A screwtop vial was charged with aniline (BRD-K25923209) (43.3 mg, 0.089 mmol) and CH2Cl2 (Volume: 886 μl, Density: 1.325 g/ml). Isopropyl chloroformate (115 μl, 0.115 mmol) and DIEA (46.4 μl, 0.266 mmol) were added dropwise and reaction stirred under ambient conditions for 1 h. […] BRD-K04244835: A 2.5 mL microwave vial was charged with aniline (BRD-K25923209) (40 mg, 0.082 mmol) and EtOH (Volume: 819 μl, Density: 0.81 g/ml). Squaramide (CRE-III-001) (20.75 mg, 0.098 mmol), DIEA (42.8 μl, 0.246 mmol), and DMAP (2.000 mg, 0.016 mmol) were added in sequence and the vial was sealed. […] 9. […] 10. […] 11."}, "[9]": {"test_system": "latent HIV-1 in CD4+ T cells from c-ART treated HIV-1 infected patients", "experiment": "HIV latency reversal from patient samples (cell associated HIV Pol mRNA)", "assay_type": "cell-based, human", "conditions": "Patient 1 (one patient); single agents; 24 hours", "protocol": "23. HIV latency reversal from patient samples: All patients were older than 18 years, c-ART treated for at least 3 years, and their viral loads were below 50 copies/ml for more than 12 months with no blips in the past two years. CD4+ T cells from aviremic HIV+ patients were isolated as described previously^55 with minor modifications. Briefly, frozen PBMCs were cultured in RPMI medium over-night to recover. Then next day CD4+ T cells were isolated twice (enriched CD4+ T cells were subjected to a second round of CD4+ T cell enrichment) and left for 6 hrs to recover. Three million cells were treated with DMSO, 10 μM BRD-K80443127, 200 nM Prostratin, 10 μM BRD-K80443127 and 200 nM prostratin, and αCD3/CD28 magnetic beads (at cell:bead ration 1:1) as a positive control in triplicate. After 24 hours cells were lysed in TRIreagent (Sigma), total RNA was isolated with Total RNA Zol-Out (A&A Biotechnology) kit and cDNA was synthetized using random primers and Superscript II Reverse Transcriptase (Life Technologies). Detection of cellular associated pol RNA was performed as described previously (Pol: For […] (SEQ ID NO:15), Rev-[…] (SEQ ID NO: 16))^55. This study was conducted in accordance with the ethical principles of the Declaration of Helsinki. HIV-1 infected patient volunteers were informed and provided signed consent to participate in the study. The study protocol was approved by The Netherlands Medical Ethics Committee (MEC-2012-583). cDNA generated from control and 10 μM BRD-K80443127 treated samples was used to assess expression of BAF target genes biomarker genes-p21 and C-MYC."}}, "data": [{"smiles": "CO[C@H]1CN(C)C(=O)c2cc(NC(=O)NC(C)C)ccc2OC[C@H](C)N(Cc2ccc(-c3cccnc3)cc2)C[C@@H]1C", "note": "[BRD-K17257309]", "values": [{"measurement": "activity in the Bmi1 luciferase reporter assays", "setting": "[1]", "result": "moderate activity"}]}, {"smiles": "CCC(CC)Nc1c(Nc2ccc3c(c2)C(=O)N(C)C[C@H](OC)[C@@H](C)CN(Cc2ccc(-c4ccccn4)cc2)[C@@H](C)CO3)c(=O)c1=O", "note": "[BRD-K04244835]", "values": [{"measurement": "activity in the Bmi1 luciferase reporter assays", "setting": "[1]", "result": "low/no activity"}]}, {"smiles": "CO[C@H]1CN(C)C(=O)c2cc(NC(=O)NC(C)C)ccc2OC[C@H](C)N(Cc2ccccc2)C[C@@H]1C", "note": "[BRD-K13648511]", "values": [{"measurement": "activity in the Bmi1 luciferase reporter assays", "setting": "[1]", "result": "low/no activity"}]}, {"smiles": "C=CCNc1nc(NCc2cccc(OC)c2)c2sc(-c3ccccc3)cc2n1", "note": "[MLS003122856]", "values": [{"measurement": "HIV latency reversal activity", "setting": "[2]", "result": "moderate"}]}, {"smiles": "CO[C@H]1CN(C)C(=O)c2cc(NC(=O)NC(C)C)ccc2OC[C@H](C)N(Cc2ccc(-c3ccccn3)cc2)C[C@@H]1C", "note": "[BRD-K98645985]", "values": [{"measurement": "activity in the Bmi1 luciferase reporter assays", "setting": "[1]", "result": "high activity"}, {"measurement": "EC50", "setting": "[1]; re-evaluation of hit, 24 h compound treatment", "result": "~2370", "unit": "nM"}, {"measurement": "toxicity to HEK293T cells", "setting": "[3]", "result": "no toxicity"}, {"measurement": "toxicity to A549 cells", "setting": "[4]", "result": "no toxicity"}, {"measurement": "toxicity to HepG2 cells", "setting": "[5]", "result": "no toxicity"}, {"measurement": "toxicity to ESCs", "setting": "[6]", "result": "no toxicity"}, {"measurement": "fold decrease in Fgf4", "setting": "[7]", "result": 3.3, "unit": "fold"}, {"measurement": "fold increase in Bmi1", "setting": "[7]", "result": 5, "unit": "fold"}, {"measurement": "fold increase in Ring1", "setting": "[7]", "result": 2.6, "unit": "fold"}, {"measurement": "latency reversal (GFP)", "setting": "[8]", "result": "concentration dependent latency reversal"}]}, {"smiles": "CO[C@H]1CN(C)C(=O)c2cc(N)ccc2OC[C@H](C)N(Cc2ccc(-c3ccccn3)cc2)C[C@@H]1C", "note": "[BRD-K25923209]", "values": [{"measurement": "activity in the Bmi1 luciferase reporter assays", "setting": "[1]", "result": "high activity"}]}, {"smiles": "CC(=O)O[C@@]12C[C@@H](C)[C@@]3(O)[C@@H](C=C(CO)C[C@]4(O)C(=O)C(C)=C[C@@H]34)[C@@H]1C2(C)C", "note": "[prostratin, reference compound]", "values": [{"measurement": "cell associated HIV mRNA (Pol), response", "setting": "[9]", "result": "responded"}]}]}
